Data published in paper PMC11940079, “Identification of a Possible Endocannabinoid-Mediated Mechanism of Action of Cetylated Fatty Acids” (Biomolecules, 2025).

Columns and labels:
[1] = target: T1, human monoacylglycerol lipase (hMAGL) (Homo sapiens, UniProt Q99685); experiment: spectrophotometric assay with 4-nitrophenyl acetate, recombinant human MAGL, dose-response; type: biochemical
T1 construct: gene MGLL
T1 sequence (Q99685 1-303): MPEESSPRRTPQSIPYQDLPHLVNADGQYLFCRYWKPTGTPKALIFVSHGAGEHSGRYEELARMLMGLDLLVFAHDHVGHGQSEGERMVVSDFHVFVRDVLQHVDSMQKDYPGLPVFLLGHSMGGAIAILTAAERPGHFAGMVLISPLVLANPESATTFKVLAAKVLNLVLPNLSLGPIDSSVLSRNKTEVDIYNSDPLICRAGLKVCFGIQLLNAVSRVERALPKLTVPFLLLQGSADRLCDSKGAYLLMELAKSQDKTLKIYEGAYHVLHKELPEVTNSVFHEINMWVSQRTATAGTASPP

[2] = target: T1, human monoacylglycerol lipase (hMAGL); experiment: spectrophotometric assay with 4-nitrophenyl acetate, single-point % inhibition at […]; type: biochemical

Compound	IC50 [1] [µM]	spectrophotometric assay with 4-nitrophenyl acetate, single-point % inhibition a [2]
CCCCCCCCCCCCCCCCOC(=O)CCCCCCCCC [3b, Hexadecyl decanoate]	36 ± 4	
CCCCCC/C=C\CCCCCCCC(=O)OCCCCCCCCCCCCCCCC [3h, Hexadecyl (Z)-hexadec-9-enoate]		its close analogue 3h (cetyl palmitoleate), possessing the double bond at the same distance from the ester group as 3g, proved to be equally active
CCCCCCCC/C=C\CCCCCCCC(=O)OCCCCCCCCCCCCCCCC [3i, Hexadecyl oleate]		their longer analogue 3i (cetyl oleate) displayed slightly weaker potency in the same test
